Each structure is given as a SMILES string.

Series [1] deals with Fusarium culmorum. In words: whole plant or invertebrate. The class given is in vivo. The following applies: in Triticum aestivum, read-out: control of Fusarium culmorum.
In another series the test system is Gaeumannomyces graminis. Put plainly: Gaeumannomyces graminis / liquid culture (take-all of cereals). The following applies: read-out: control of Gaeumannomyces graminis. In kind it is cell-based.
For series [2], the system named is Fusarium culmorum. In words: microbe, parasite or virus in culture. In kind it is cell-based. The following applies: read-out: control of Fusarium culmorum.
The subject of series [3] is Botryotinia fuckeliana (Botrytis cinerea). In words: Botryotinia fuckeliana (Botrytis cinerea) / liquid culture (gray mould). The following applies: 72 h, read-out: control of Botryotinia fuckeliana. The class given is cell-based.
For series [4], the system named is Monographella nivalis (Microdochium nivale). In words: Monographella nivalis (Microdochium nivale) / liquid culture (foot rot cereals). In kind it is cell-based. The following applies: 96 h, read-out: control of Monographella nivalis.
Series [5] relates to Glomerella lagenarium (Colletotrichum lagenarium). Put plainly: Glomerella lagenarium (Colletotrichum lagenarium) / liquid culture (anthracnose). In kind it is cell-based. The following applies: Colletotrichum orbiculare; read-out: control of Glomerella lagenarium.
Series [6] has as its system Magnaporthe grisea (Pyricularia oryzae). In words: microbe, parasite or virus in culture. In kind it is cell-based. The note with it: 72 h, read-out: control of Magnaporthe grisea.

Take `CC(C)(NC(=O)c1cnc2ccccc2c1)C(C)(C)c1ccccc1F` [Compound E-1, N-[2-(2-fluorophenyl)-1,1,2-trimethyl-propyl]quinoline-3-carboxamide]: the pest or weed control at 200 ppm in the series on Fusarium culmorum [1] was not below 80%. In addition, the inhibition of growth at 200 ppm (with Gaeumannomyces graminis; in the series with Fusarium culmorum [2]; in series [3]; in series [4]; in series [5]) was not below 80% in each case.
Regarding `CC(C)CC(C)(Cc1ccccc1)NC(=O)c1cnc2ccccc2c1` (stereo not drawn) [Compound E-13, N-(1-benzyl-1,3-dimethyl-butyl)quinoline-3-carboxamide], the pest or weed control at 200 ppm with Fusarium culmorum [1] was not below 80%. The inhibition of growth at 200 ppm (in the series on Gaeumannomyces graminis; with Fusarium culmorum [2]; in series [3]; in series [4]; in series [5]) was not below 80% in each case.
Regarding `O=C(NC(CCC(F)(F)F)Cc1ccccc1)c1cnc2c(Cl)cccc2c1` (stereo not drawn) [Compound E-17, N-(1-benzyl-4,4,4-trifluoro-butyl)-8-chloro-quinoline-3-carboxamide], the melting point lay in the range of 163 to 167 °C. In the series with Fusarium culmorum [1], the pest or weed control at 200 ppm is not below 80%. The inhibition of growth at 200 ppm in series [6] was not below 80%. In addition, the inhibition of growth at 200 ppm in the series on Gaeumannomyces graminis was not below 80%. The inhibition of growth at 200 ppm with Fusarium culmorum [2] is not below 80%. Moreover, in series [3], the inhibition of growth at 200 ppm was not below 80%.
Compound `Cc1cccc2cc(C(=O)NC(CCC(F)(F)F)Cc3ccccc3)cnc12` (stereo not drawn) [Compound E-19, N-(1-benzyl-4,4,4-trifluoro-butyl)-8-methyl-quinoline-3-carboxamide] gave a melting point of 158 to 161 °C. The pest or weed control at 200 ppm in the series on Fusarium culmorum [1] was not below 80%. In series [6], the inhibition of growth at 200 ppm is not below 80%. The inhibition of growth at 200 ppm in the series with Gaeumannomyces graminis was not below 80%. For the same compound, in the series with Fusarium culmorum [2], the inhibition of growth at 200 ppm is not below 80%. In series [3], the inhibition of growth at 200 ppm is not below 80%.
Regarding `CC(C)CC(C)(Cc1ccccc1F)NC(=O)c1cnc2c(F)cccc2c1` (stereo not drawn) [Compound E-21, 8-fluoro-N-[1-[(2-fluorophenyl)methyl]-1,3-dimethyl-butyl]quinoline-3-carboxamide], the melting point was 105 to 106 °C. Further, the pest or weed control at 200 ppm in the series on Fusarium culmorum [1] was not below 80%. In series [6], the inhibition of growth at 200 ppm is not below 80%. For the same compound, the inhibition of growth at 200 ppm in the series with Gaeumannomyces graminis was not below 80%. For the same compound, in the series with Fusarium culmorum [2], the inhibition of growth at 200 ppm is not below 80%. The inhibition of growth at 200 ppm in series [3] is not below 80%. Besides, the inhibition of growth at 200 ppm in series [4] is not below 80%. Besides, the inhibition of growth at 200 ppm in series [5] is not below 80%.
The compound `CC(C)CC(C)(Cc1ccccc1Cl)NC(=O)c1cnc2c(F)cccc2c1` (stereo not drawn) [Compound E-22, N-[1-[(2-chlorophenyl)methyl]-1,3-dimethyl-butyl]-8-fluoro-quinoline-3-carboxamide] displayed a melting point of 109 to 110 °C. For the same compound, the pest or weed control at 200 ppm in the series on Fusarium culmorum [1] is not below 80%. Besides, the inhibition of growth at 200 ppm in series [6] was not below 80%. Moreover, in the series with Gaeumannomyces graminis, the inhibition of growth at 200 ppm is not below 80%. In addition, in the series on Fusarium culmorum [2], the inhibition of growth at 200 ppm was not below 80%. The inhibition of growth at 200 ppm in series [3] was not below 80%. The inhibition of growth at 200 ppm in series [4] was not below 80%. In addition, the inhibition of growth at 200 ppm in series [5] is not below 80%.
With `CC(C)CC(C)(Cc1cccc(Cl)c1)NC(=O)c1cnc2c(F)cccc2c1` (stereo not drawn) [Compound E-27, N-[1-[(3-chlorophenyl)methyl]-1,3-dimethyl-butyl]-8-fluoro-quinoline-3-carboxamide], the melting point lay within 41 to 42 °C. Besides, the inhibition of growth at 200 ppm in series [6] was not below 80%. The inhibition of growth at 200 ppm in the series on Gaeumannomyces graminis was not below 80%. The inhibition of growth at 200 ppm with Fusarium culmorum [2] was not below 80%. Moreover, the inhibition of growth at 200 ppm in series [3] was not below 80%. Also, the inhibition of growth at 200 ppm in series [4] was not below 80%. The inhibition of growth at 200 ppm in series [5] was not below 80%.
`C=CCC(C)(Cc1ccccc1)NC(=O)c1cnc2ccccc2c1` (stereo not drawn) [Compound E-37, N-(1-benzyl-1-methyl-but-3-enyl)quinoline-3-carboxamide]: the inhibition of growth at 200 ppm (in series [6]; in the series on Gaeumannomyces graminis; in the series with Fusarium culmorum [2]; in series [3]; in series [4]; in series [5]) was not below 80% each time.
As to `C=CCC(C)(Cc1ccccc1)NC(=O)c1cnc2c(F)cccc2c1` (stereo not drawn) [Compound E-38, N-(1-benzyl-1-methyl-but-3-enyl)-8-fluoro-quinoline-3-carboxamide], the pest or weed control at 200 ppm in the series with Fusarium culmorum [1] is not below 80%. Moreover, the inhibition of growth at 200 ppm (in series [6]; in the series with Gaeumannomyces graminis; in the series on Fusarium culmorum [2]; in series [3]; in series [4]; in series [5]) was not below 80% in each case.
The compound `CC(C)CC(C)(Cc1ccccc1)NC(=O)c1cnc2cc(F)ccc2c1` (stereo not drawn) [Compound E-40, N-(1-benzyl-1,3-dimethyl-butyl)-7-fluoro-quinoline-3-carboxamide] returned a melting point of 142 to 144 °C. Besides, the inhibition of growth at 200 ppm in series [6] is not below 80%. Also, the inhibition of growth at 200 ppm with Gaeumannomyces graminis is not below 80%. In addition, in the series on Fusarium culmorum [2], the inhibition of growth at 200 ppm was not below 80%. Further, in series [3], the inhibition of growth at 200 ppm was not below 80%. For the same compound, the inhibition of growth at 200 ppm in series [5] was not below 80%.
`CCCC(C)(Cc1ccccc1)NC(=O)c1cnc2c(F)cccc2c1` (stereo not drawn) [Compound E-42, N-(1-benzyl-1-methyl-butyl)-8-fluoro-quinoline-3-carboxamide]: in the series with Fusarium culmorum [1], the pest or weed control at 200 ppm was not below 80%. Further, the inhibition of growth at 200 ppm (in series [6]; in the series with Gaeumannomyces graminis; with Fusarium culmorum [2]; in series [3]; in series [4]; in series [5]) was not below 80% each time.
Turning to `CCCC(C)(Cc1ccccc1)NC(=O)c1cnc2ccccc2c1` (stereo not drawn) [Compound E-43, N-(1-benzyl-1-methyl-butyl)quinoline-3-carboxamide], the pest or weed control at 200 ppm with Fusarium culmorum [1] is not below 80%. The inhibition of growth at 200 ppm (in series [6]; with Gaeumannomyces graminis; with Fusarium culmorum [2]; in series [3]; in series [4]; in series [5]) was not below 80% in each case.
As for `CC(C)CC(C)(Cc1cccc(Br)c1)NC(=O)c1cnc2c(F)cccc2c1` (stereo not drawn) [Compound E-45, N-[1-[(3-bromophenyl)methyl]-1,3-dimethyl-butyl]-8-fluoro-quinoline-3-carboxamide], the melting point was 87 to 89 °C. For the same compound, the inhibition of growth at 200 ppm in series [6] is not below 80%. In addition, in the series with Gaeumannomyces graminis, the inhibition of growth at 200 ppm is not below 80%. Moreover, the inhibition of growth at 200 ppm in the series on Fusarium culmorum [2] was not below 80%. The inhibition of growth at 200 ppm in series [3] was not below 80%. Besides, the inhibition of growth at 200 ppm in series [4] was not below 80%. In addition, in series [5], the inhibition of growth at 200 ppm is not below 80%.
`CC(C)CC(C)(Cc1cccc(C#N)c1)NC(=O)c1cnc2c(F)cccc2c1` (stereo not drawn) [Compound E-46, N-[1-[(3-cyanophenyl)methyl]-1,3-dimethyl-butyl]-8-fluoro-quinoline-3-carboxamide]: the melting point is 45 to 46 °C. For the same compound, in series [6], the inhibition of growth at 200 ppm was not below 80%. In the series with Gaeumannomyces graminis, the inhibition of growth at 200 ppm was not below 80%. For the same compound, the inhibition of growth at 200 ppm with Fusarium culmorum [2] is not below 80%. Also, in series [3], the inhibition of growth at 200 ppm was not below 80%. For the same compound, the inhibition of growth at 200 ppm in series [5] was not below 80%.
For `C=C(C)CC(Cc1ccccc1)(NC(=O)c1cnc2c(F)cccc2c1)C1CC1` (stereo not drawn) [Compound E-53, N-(1-benzyl-1-cyclopropyl-3-methyl-but-3-enyl)-8-fluoro-quinoline-3-carboxamide], the inhibition of growth at 200 ppm (in series [6]; in the series with Gaeumannomyces graminis; in the series on Fusarium culmorum [2]; in series [3]; in series [4]; in series [5]) was not below 80% throughout.
With `CC(C)C[C@@H](Cc1ccccc1)NC(=O)c1cnc2c(F)cccc2c1` [Compound F-4, N-[(1S)-1-benzyl-3-methyl-butyl]-8-fluoro-quinoline-3-carboxamide], the pest or weed control at 200 ppm in the series with Fusarium culmorum [1] was not below 80%. Further, the inhibition of growth at 200 ppm (in the series with Gaeumannomyces graminis; with Fusarium culmorum [2]; in series [3]; in series [4]; in series [5]) was not below 80% in each case.
In the case of `CC(C)C[C@](C)(Cc1ccccc1)NC(=O)c1cnc2ccccc2c1` [Compound F-5, N-[(1R)-1-benzyl-1,3-dimethyl-butyl]quinoline-3-carboxamide], in the series with Fusarium culmorum [1], the pest or weed control at 200 ppm was not below 80%. Moreover, the inhibition of growth at 200 ppm (in the series with Gaeumannomyces graminis; with Fusarium culmorum [2]; in series [3]; in series [4]; in series [5]) was not below 80% in each case.
Consider `CC(C)(C)C[C@@](C)(Cc1ccccc1)NC(=O)c1cnc2c(F)cccc2c1` [Compound F-18, N-[(1S)-1-benzyl-1,3,3-trimethyl-butyl]-8-fluoro-quinoline-3-carboxamide], for which the pest or weed control at 200 ppm in the series on Fusarium culmorum [1] is not below 80%. Besides, the inhibition of growth at 200 ppm (in the series on Gaeumannomyces graminis; with Fusarium culmorum [2]; in series [3]; in series [4]; in series [5]) was not below 80% throughout.

The term melting point denotes the temperature of the solid-liquid transition.

The values above are taken from patent US10477864B2, “Microbiocidal quinoline (thio)carboxamide derivatives” (priority 2016, dated 2019).
